Reference: the supplement of paper PMC11208160

Assay: recombinant UMI read abundance after kanamycin selection (control-corrected) (log10(CPM+1)); higher = more efficient recombination; extreme values may be limits of the assay; sequences stand for … in AGTGCAGAGAAAATCGGCCAGTTTTCTCTGCCTGCAGTCCGCATGCCGTGGGACCCCTTGGGTTCTAACCTGTTGCCTAGATTTATGCAGCGGACTGCCTTTCTCCCAAAGTGATAAACCGG…AGGTTGGTTTCACT; site = the 11-nt donor
Method: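 Pooled E. coli donor-specificity screen for the IS621 bridge recombinase. Each library member carries a reprogrammed 11-nt donor and a full-length LE bridge RNA expressed in cis from the natural promoter, with a paired donor-binding loop (8-nt LDG + 4-nt RDG) and a target-binding loop fixed to T5. It is co-electroporated with a T5 target plasmid; recombinase is induced with 0.07 mM IPTG and recombinants are selected on kanamycin. UMIs are counted as CPM, averaged over two biological replicates and corrected by the unselected control. Molecule = full bridge RNA written as DNA, built from the T5 scaffold: LDG = donor specificity nt 1-8, RDG = reverse complement of nt 8-11.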
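Further: IS621 bridge recombinase in Escherichia coli cells against a fixed T5 target plasmid.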

First: ACGAAGACATGGACCGGTTTTCCCGGTAATCCGTATTTGCA (site AGGAAGACTTG)
Second: ACGAAGACATGGACCGGTTTTCCCGGTAATCCGTATTTGCA (site ATGAAGACTTG)
The “recombinant UMI read abundance (log10)” value of the first is lower: 1.81 for the first, 2.04 for the second.

First: ACGAAGACATGGACCGGTTTTCCCGGTAATCCGTATTTGCG (site ACGAAGACTCG)
Second: ACGAAGACATGGACCGGTTTTCCCGGTAATCCGTATTTGCG (site AGGAAGACTTG)
The “recombinant UMI read abundance (log10)” value of the first is higher: 2.77 for the first, 0 for the second.

Compared with “ACGAAGTCATGGACCGGTTTTCCCGGTAATCCGTATTTGGG (site ACGAAGTCTCC)”, “ACGAATTCATGGACCGGTTTTCCCGGTAATCCGTATTTGCG (site ACGAATTCTCG)” is higher in “recombinant UMI read abundance (log10)” value: 0.574 for the first, 2.06 for the second.

First: ACGACTTCATGGACCGGTTTTCCCGGTAATCCGTATTTGTT (site ACGACTTCTAA)
Second: ACGAGAACATGGACCGGTTTTCCCGGTAATCCGTATTTGTT (site ACGAGAACTAA)
The “recombinant UMI read abundance (log10)” value of the first is lower: 1.23 for the first, 2.8 for the second.

First: ACGCAACCATGGACCGGTTTTCCCGGTAATCCGTATTTGAA (site ACGCAACCTTT)
Second: ACGCGGACATGGACCGGTTTTCCCGGTAATCCGTATTTGTG (site ACGCGGACTCA)
The “recombinant UMI read abundance (log10)” value of the first is lower: 0 for the first, 1.74 for the second.

Going from “ACGCGTCCATGGACCGGTTTTCCCGGTAATCCGTATTTGTG (site ACGCGTCCTCA)” to “ACGCGTGCATGGACCGGTTTTCCCGGTAATCCGTATTTGAC (site ACGCGTGCTGT)”, the “recombinant UMI read abundance (log10)” value rises from 0.257 to 2.96.

Going from “ACGCTATCATGGACCGGTTTTCCCGGTAATCCGTATTTGCA (site ACAGTATCTTG)” to “ACGCTATCATGGACCGGTTTTCCCGGTAATCCGTATTTGCA (site ACGCTATCTTG)”, the “recombinant UMI read abundance (log10)” value rises from 1.92 to 2.75.

Compared with “ACGGACACATGGACCGGTTTTCCCGGTAATCCGTATTTGGT (site ACGGACACTAC)”, “ACGGCCTCATGGACCGGTTTTCCCGGTAATCCGTATTTGGG (site ACGGCCTCTCC)” is lower in “recombinant UMI read abundance (log10)” value: 1.82 for the first, 0.0343 for the second.

Going from “ACGGGCGCATGGACCGGTTTTCCCGGTAATCCGTATTTGAG (site ACGGGCGCTCT)” to “ACGGTATCATGGACCGGTTTTCCCGGTAATCCGTATTTGCA (site ACAGTATCTTG)”, the “recombinant UMI read abundance (log10)” value rises from 1.15 to 2.96.

Going from “ACGGTATCATGGACCGGTTTTCCCGGTAATCCGTATTTGCA (site ACCGTATCTTG)” to “ACGGTATCATGGACCGGTTTTCCCGGTAATCCGTATTTGCA (site ACGGTATCTTG)”, the “recombinant UMI read abundance (log10)” value rises from 1.92 to 3.16.

Going from “ACGGTATCATGGACCGGTTTTCCCGGTAATCCGTATTTGCA (site ACTGTATCTTG)” to “ACGGTTTCATGGACCGGTTTTCCCGGTAATCCGTATTTGCA (site ACAGTATCTTG)”, the “recombinant UMI read abundance (log10)” value rises from 2.32 to 2.71.

Going from “ACGGTTTCATGGACCGGTTTTCCCGGTAATCCGTATTTGCA (site ACGGTTTCTTG)” to “ACGTCCTCATGGACCGGTTTTCCCGGTAATCCGTATTTGGT (site ACGTCCTCTAC)”, the “recombinant UMI read abundance (log10)” value falls from 2.34 to 1.51.

Going from “ACGTGTGCATGGACCGGTTTTCCCGGTAATCCGTATTTGGT (site ACGTGTGCTAC)” to “ACTAGAACATGGACCGGTTTTCCCGGTAATCCGTATTTGAG (site AATAGAACTCT)”, the “recombinant UMI read abundance (log10)” value falls from 1.99 to 0.839.

“ACTAGAACATGGACCGGTTTTCCCGGTAATCCGTATTTGAG (site ACAAGAACTCT)” and “ACTAGAACATGGACCGGTTTTCCCGGTAATCCGTATTTGAG (site ACCAGAACTCT)” are within 0.2 log units of each other in “recombinant UMI read abundance (log10)” value: 1.26 for the first, 1.23 for the second.

Compared with “ACTAGAACATGGACCGGTTTTCCCGGTAATCCGTATTTGAG (site ACGAGAACTCT)”, “ACTAGAACATGGACCGGTTTTCCCGGTAATCCGTATTTGAG (site ACTAAAACTCT)” is higher in “recombinant UMI read abundance (log10)” value: 0.424 for the first, 0.908 for the second.

First: ACTAGAACATGGACCGGTTTTCCCGGTAATCCGTATTTGAG (site ACTACAACTCT)
Second: ACTAGAACATGGACCGGTTTTCCCGGTAATCCGTATTTGAG (site ACTAGAACTAT)
The “recombinant UMI read abundance (log10)” value of the first is higher: 0.383 for the first, 0 for the second.
